Assays:
Angiotensin II receptor = molecular target: T1, Angiotensin II receptor (Rattus norvegicus, UniProt P29089+P25095+P35351); assay: Inhibition of [125I]AII binding to Angiotensin II receptor, type 1 of rat mesenteric arteries; assay type: protein assay
T1 sequence (P29089 whole entry): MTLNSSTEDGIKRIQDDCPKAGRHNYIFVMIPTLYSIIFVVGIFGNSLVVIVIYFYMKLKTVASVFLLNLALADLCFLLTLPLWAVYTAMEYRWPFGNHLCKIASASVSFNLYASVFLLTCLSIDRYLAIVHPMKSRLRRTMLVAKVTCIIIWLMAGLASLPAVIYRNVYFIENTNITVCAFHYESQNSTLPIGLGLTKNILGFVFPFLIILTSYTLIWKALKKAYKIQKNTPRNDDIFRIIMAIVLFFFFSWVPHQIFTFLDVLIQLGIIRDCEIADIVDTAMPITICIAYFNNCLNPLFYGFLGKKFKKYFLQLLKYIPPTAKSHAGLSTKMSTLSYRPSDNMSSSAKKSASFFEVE
T1 sequence (P25095 whole entry): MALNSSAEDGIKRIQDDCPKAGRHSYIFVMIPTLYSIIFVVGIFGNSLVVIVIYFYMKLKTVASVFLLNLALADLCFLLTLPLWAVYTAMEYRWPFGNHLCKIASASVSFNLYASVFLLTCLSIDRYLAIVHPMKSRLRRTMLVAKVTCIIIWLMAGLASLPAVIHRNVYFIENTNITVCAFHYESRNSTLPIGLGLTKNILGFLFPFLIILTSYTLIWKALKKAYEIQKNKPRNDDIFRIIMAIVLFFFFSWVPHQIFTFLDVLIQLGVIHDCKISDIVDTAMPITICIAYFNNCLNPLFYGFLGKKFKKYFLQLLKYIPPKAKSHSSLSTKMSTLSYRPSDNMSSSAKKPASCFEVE
T1 sequence (P35351 whole entry): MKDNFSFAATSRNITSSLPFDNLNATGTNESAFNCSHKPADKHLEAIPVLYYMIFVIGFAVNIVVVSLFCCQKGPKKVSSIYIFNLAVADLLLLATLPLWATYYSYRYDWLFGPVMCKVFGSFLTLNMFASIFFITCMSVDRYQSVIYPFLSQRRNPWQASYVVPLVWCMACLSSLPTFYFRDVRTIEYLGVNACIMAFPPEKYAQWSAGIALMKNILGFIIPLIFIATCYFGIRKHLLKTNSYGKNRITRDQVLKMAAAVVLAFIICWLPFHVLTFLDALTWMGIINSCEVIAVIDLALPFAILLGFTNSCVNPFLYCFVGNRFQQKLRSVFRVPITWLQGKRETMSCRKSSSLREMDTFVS

[1] = molecular target: Angiotensin II receptor (Rattus norvegicus) (UniProt P29089+P25095+P35351); assay: In vivo inhibition of pressor response to angiotensin II in conscious normotensive rats; assay type: functional, organism-based

Row | SMILES | IC50 (Angiotensin II receptor) [µM] | ID50 [1] [mg/kg]
1 | CCCCc1ncc(/C=C(\Cc2cccs2)C(=O)O)n1Cc1ccc(C(N)=O)cc1 | 0.00056 | 
2 | CCCCc1ncc(/C=C(\Cc2cccs2)c2nn[nH]n2)n1Cc1ccc(C(=O)O)cc1 | 0.0003 | 0.7
3 | CCCCc1ncc(/C=C(\Cc2cccs2)C(=O)O)n1Cc1cccc(C(=O)O)c1 | 0.0033 | 
4 | CCCCc1ncc(/C=C(\Cc2cccs2)C(=O)O)n1Cc1ccc(O)c(C)c1 | 0.021 | 
5 | CCCCc1ncc(/C=C/C(=O)O)n1Cc1ccc(C(=O)O)cc1 | 0.391 | 
6 | CCCCc1ncc(/C=C(\Cc2cccs2)C(=O)O)n1Cc1ccc(C(=O)O)cc1[N+](=O)[O-] | 0.00015 | 0.06
7 | CC(C)CCc1ncc(/C=C(\Cc2cccs2)C(=O)O)n1Cc1ccc(C(=O)O)cc1 | 0.0336 | 
8 | CCCc1ncc(/C=C(\Cc2cccs2)C(=O)O)n1Cc1ccccc1Cl | 0.127 | 8.1
9 | CCCCc1ncc(/C=C(\Cc2cccs2)C(=O)O)n1Cc1ccc([N+](=O)[O-])cc1 | 0.62 | 
10 | CCCCc1ncc(/C=C(\Cc2cccs2)C(=O)O)n1Cc1cccc(Cl)c1Cl | 0.046 | 2.8
11 | CCCCc1ncc(/C=C(\Cc2cccs2)C(=O)O)n1Cc1cccc(OC)c1 | 0.18 | 8
12 | CCCCc1ncc(/C=C(\Cc2cccs2)C(N)=O)n1Cc1ccc(C(=O)O)cc1 | 0.021 | 
13 | CCCCc1ncc(/C=C(\Cc2cccs2)c2nn[nH]n2)n1Cc1ccccc1Cl | 0.31 | 8
14 | CCCCc1ncc(/C=C(\Cc2cccs2)C(=O)O)n1Cc1ccccc1 | 4.53 | 
15 | CCCCc1cnc(/C=C(\Cc2cccs2)C(=O)O)n1Cc1ccc(C(=O)O)cc1 | 0.248 | 
16 | CCCCCCc1ncc(/C=C(\Cc2cccs2)C(=O)O)n1Cc1ccccc1Cl | 0.123 | 5.7

Row | SMILES | IC50 (Angiotensin II receptor) [µM] | ID50 [1] [mg/kg]
17 | CCCCc1ncc(/C=C(\Cc2cccs2)C(=O)O)n1Cc1ccccc1Cl |  | 3.6
18 | CCCCc1ncc(/C=C(\Cc2cccs2)C(=O)O)n1Cc1cc(Cl)c(C(=O)O)cc1Cl | 0.035 | 0.68
19 | CCCCc1ncc(/C=C(\Cc2cccs2)C(=O)O)n1-c1ccc(C(=O)O)cc1 | 0.25 | 
20 | CCCc1cccc(/C=C(\Cc2cccs2)C(=O)O)c1Cc1ccc(C(=O)O)cc1 | > 0.01 | 
21 | CCCCc1ncc(/C=C(\Cc2cccs2)C(=O)O)n1Cc1ccc(C(=O)OC)cc1 | 0.039 | 
22 | CCCCc1ncc(/C=C(\Cc2cccs2)C(=O)OCC)n1Cc1ccc(C(=O)OCC)cc1 | 1.27 | 
23 | CCCCc1ncc(/C=C(\Cc2ccccc2)C(=O)O)n1Cc1ccc(C(=O)O)cc1 | 0.00426 | 
24 | CCCCc1ncc(/C=C(\Cc2cccs2)C(=O)O)n1Cc1cccc([N+](=O)[O-])c1 | 0.21 | 7
25 | CCCCc1ncc(/C=C(\Cc2cccs2)c2nn[nH]n2)n1Cc1ccccc1C(F)(F)F |  | 8
26 | CCCCc1ncc(C/C(=C/c2cccs2)C(=O)O)n1Cc1ccc(C(=O)O)cc1 |  | > 3
27 | CCCCc1ncc(/C=C(\Cc2cccs2)C(=O)O)n1Cc1ccc(C(=O)O)c(-c2ccccc2)c1 | 0.0025 | 0.18
28 | CCCCc1ncc(/C=C(\CC2CCCS2)C(=O)O)n1Cc1ccc(C(=O)O)cc1 (centres undefined) | 0.0338 | 
29 | CCCCc1ncc(/C=C(\Cc2cccs2)C(=O)O)n1Cc1ccc(C(=O)O)c(O)c1 | 0.00059 | 0.15
30 | CCCCc1ncc(/C=C(\Cc2cccs2)C(=O)O)n1CCc1ccc(C(=O)O)cc1 | 0.063 | 
31 | CC(C)Cc1ncc(/C=C(\Cc2cccs2)C(=O)O)n1Cc1ccc(C(=O)O)cc1 | 0.163 | 2

The next lines start with the values.

Row | IC50 (Angiotensin II receptor) [µM] | ID50 [1] [mg/kg] | SMILES
32 | 0.066 |  | CCCCc1ncc(/C=C(\Cc2cccs2)C(=O)O)n1Cc1ccc(OC)c(C)c1
33 | 0.022 |  | CCCCc1ncc(/C=C(\Cc2cccs2)C(=O)O)n1Cc1ccccc1C#N
34 |  | 0.08 | CCCCc1ncc(/C=C(\Cc2cccs2)C(=O)O)n1Cc1ccc(C(=O)O)cc1 (stereo in doubt; 2)
35 | 7.35 | 15 | CCCCc1ncc(/C=C(\Cc2cccs2)C(=O)O)n1Cc1ccccc1OC
36 | 0.06 | 0.84 | CCCCc1ncc(/C=C(\Cc2cccs2)C(=O)O)n1Cc1ccc(CC(=O)O)cc1
37 | 0.416 |  | CCCCc1ncc(/C=C(/C(=O)O)C(C)(C)c2cccs2)n1Cc1ccc(C(=O)O)cc1
38 | 0.23 | 3.5 | CCCCc1ncc(/C=C(\Cc2cccs2)c2nn[nH]n2)n1Cc1ccccc1[N+](=O)[O-]
39 |  | 0.24 | CCCCc1ncc(/C=C(\CCc2cccs2)C(=O)O)n1Cc1ccc(C(=O)O)cc1
40 | 0.034 |  | CCCCc1ncc(/C=C(\Cc2cccs2)C(=O)O)n1Cc1ccccc1O
41 | 0.00481 |  | CCCCc1ncc(/C=C(\Cc2cccs2)C(=O)NCC(=O)O)n1Cc1ccc(C(=O)O)cc1
42 | 1.3 | 8 | CCCCc1ncc(/C=C(\Cc2cccs2)c2nn[nH]n2)n1Cc1cccc(Cl)c1Cl
43 | 0.015 |  | CCCc1ncc(/C=C(\Cc2cccs2)C(=O)O)n1Cc1ccccc1[N+](=O)[O-]
44 | 0.053 | 0.24 | CCCCc1ncc(CC(Cc2cccs2)C(=O)O)n1Cc1ccc(C(=O)O)cc1 (centres undefined)
45 | 0.57 |  | CC/C=C/c1ncc(/C=C(\Cc2cccs2)C(=O)O)n1Cc1ccccc1Cl
46 | 0.0066 | 0.62 | CCCCc1ncc(/C=C(\Cc2cccs2)C(=O)O)n1Cc1ccc(-c2ccccc2C(=O)O)cc1
47 | 0.043 |  | CCCCCCc1ncc(/C=C(\Cc2cccs2)C(=O)O)n1Cc1ccccc1[N+](=O)[O-]

Row | IC50 (Angiotensin II receptor) [µM] | ID50 [1] [mg/kg] | SMILES
48 | 0.0942 |  | CCCCc1ncc(/C=C(\Cc2cccs2)C(N)=O)n1Cc1ccc(C(N)=O)cc1
49 | 0.0008 | 0.6 | CCCCCCc1ncc(/C=C(\Cc2cccs2)C(=O)O)n1Cc1ccc(C(=O)O)cc1
50 | 0.00145 | 0.06 | CCCCc1ncc(/C=C(\Cc2cccs2)C(=O)O)n1Cc1ccc(C(=O)O)cc1Cl
51 | 0.0004 | 0.2 | CCCCc1ncc(/C=C(\Cc2cccs2)C(=O)O)n1Cc1ccc(-c2nn[nH]n2)cc1
52 | 0.0046 | 0.12 | CCCCc1ncc(/C=C(\Cc2cccs2)C(=O)O)n1Cc1ccc(C(=O)O)c(C(=O)O)c1
53 | 0.13 |  | CCCCc1ncc(/C=C(\Cc2cccs2)C(=O)O)n1Cc1cccc(OC)c1[N+](=O)[O-]
54 | 0.005 | 0.16 | CCCc1ncc(/C=C(\Cc2cccs2)C(=O)O)n1Cc1ccc(C(=O)O)cc1
55 | 0.118 |  | CCCCc1ncc(/C=C(\Cc2cccs2)C(=O)O)n1Cc1ccc(C#N)cc1
56 | 0.001 | 0.12 | CCCCc1ncc(/C=C(\Cc2cccs2)C(=O)O)n1Cc1ccc(C(=O)O)c(Cl)c1
57 |  | 0.33 | CCCC/C(=C\c1cnc(CCCC)n1Cc1ccc(C(=O)O)cc1)C(=O)O
58 | 0.0276 |  | CCCCc1ncc(/C=C(\Cc2cccs2)C(=O)O)n1Cc1ccc(C(=O)OCC)cc1
59 | 0.0045 | > 3 | CCCCc1ncc(/C=C(\Cc2cccs2)C(=O)O)n1Cc1ccc(S(N)(=O)=O)cc1
60 | 0.26 | 3.4 | CCCCc1ncc(/C=C(\Cc2cccs2)C(=O)O)n1Cc1ccccc1C(F)(F)F
61 | 6 |  | CCCCc1ncc(/C=C(\Cc2cccs2)C(=O)O)n1Cc1ccccc1C(=O)O
62 | 0.031 | 2.6 | CCCCc1ncc(/C=C(\Cc2cccs2)C(=O)O)n1Cc1ccccc1[N+](=O)[O-]

Reference: ChEMBL document CHEMBL1126722, “Potent nonpeptide angiotensin II receptor antagonists. 2. 1-(Carboxybenzyl)imidazole-5-acrylic acids” (J Med Chem, 1993)
